Ends that are not written are not given here.
Columns and labels:
[1] = test system: insulin-stimulated glycogen synthesis; conditions: activation of sensory nerves; cited from earlier work
[2] = test system: ATP-sensitive potassium channel; conditions: rabbit mesenteric resistance arteries and rat basilar artery; cited from earlier work
[3] = biological target: T1, BECRLR (bovine calcitonin receptor-like receptor) (Bos taurus, UniProt A6QP74); experiment: Inhibition of ADM-activated adenylyl cyclase activity (antagonism) in BECRLR-293 membranes; format: biochemical; conditions: BECRLR #8
T1 construct: amplify the open reading frame of the novel bovine CRLR cDNA; expressed in transfected cells; also transient transfection
T1 sequence (A6QP74 23-462): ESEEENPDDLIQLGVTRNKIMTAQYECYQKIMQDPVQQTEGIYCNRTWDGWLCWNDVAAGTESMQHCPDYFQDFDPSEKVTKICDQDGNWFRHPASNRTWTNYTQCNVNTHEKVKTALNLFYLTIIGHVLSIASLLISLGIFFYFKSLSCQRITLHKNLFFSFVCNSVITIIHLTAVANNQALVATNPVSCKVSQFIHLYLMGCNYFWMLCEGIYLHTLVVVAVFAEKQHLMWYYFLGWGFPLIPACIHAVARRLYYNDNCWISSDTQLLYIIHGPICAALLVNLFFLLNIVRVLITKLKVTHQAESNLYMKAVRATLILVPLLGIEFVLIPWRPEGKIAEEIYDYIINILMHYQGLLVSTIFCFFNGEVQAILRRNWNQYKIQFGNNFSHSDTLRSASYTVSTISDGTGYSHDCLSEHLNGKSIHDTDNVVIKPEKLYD
T1 sequence (O60895 43-175 partner): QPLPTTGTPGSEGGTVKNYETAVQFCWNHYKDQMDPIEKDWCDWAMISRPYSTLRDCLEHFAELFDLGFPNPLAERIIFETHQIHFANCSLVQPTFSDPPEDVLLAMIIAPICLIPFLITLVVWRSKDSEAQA
Protocol: (§1) Cells from BECRLR-293 were scraped into ice-cold PBS and centrifuged for 10 min at 1000× g at 4° C. The pellet was resuspended in 10 mM Tris-HCl, pH 7.4, 10 mM Na-EDTA and homogenized using a Dounce ground glass homogenizer. The homogenate was centrifuged for 20 min at 12,000× g at 4° C. and the resultant membrane pellet was resuspended in 50 mM Tris-HCl, pH 7.4, 10 mM MgCl2 and recentrifuged. The final pellet was resuspended in 50 mM Tris-HCl, pH 7.4, 10 mM MgCl2 and assayed immediately.
(§2) [^125 I] […] The specificity of [^125 I] rADM binding to BE-CRLR membranes was investigated by analyzing the displacement of this radioligand binding by ADM and related peptides.

[4] = biological target: T1, BECRLR (bovine calcitonin receptor-like receptor); experiment: Competition binding, displacement of [125I] rADM from BECRLR membranes; conditions: BE-CRLR membranes; for IC50: [125I] rADM
Protocol: as §1
(§3) Saturation binding experiments were carried out using membranes prepared from BECRLR-293 cells pretreated in the absence or presence of ADM. The incubation mixture contained various concentrations of [^125 I] ADM (5 to 120 pM) and 40-60 μg of membrane protein in a final volume of 500 ul. Nonspecific binding was determined in the presence of 1 μM r ADM. After incubating for 30 min at 25° C., the reaction mixture was rapidly diluted with cold 0.9% NaCl and bound and free ligands were separated by filtration on glass fiber filters.
as §2

[5] = test system: vector transfected HEK293 cell membranes; experiment: Adenylyl cyclase activity in vector transfected HEK293 cell membranes (control); format: biochemical, human
Protocol: (§4) Membrane-bound adenylyl cyclase activity was determined. Membranes [40-60 ug protein] were incubated in triplicate tubes in buffer containing 50 mM Tris-HCl, pH 7.4, 10 mM MgCl2, 1.2 mM ATP, 1.0 μCi [α^32P]ATP, 0.1 mM cAMP, 2.8 mM phosphoenolpyruvate and 5.2 μg/ml myokinase in a final volume of 100 μl for 20 min at 30° C. The reactions were stopped with 1 ml of a solution containing 0.28 mM cAMP, 0.33 mM ATP and 22,000 dpm of [^3 H]cAMP. [^32 P]cAMP was separated using sequential chromatography as the rate of conversion of [(α^32 P]ATP to [^32 P]cAMP on Dowex and alumina columns (33). Adenylyl cyclase activities were determined in the absence (basal) or presence of various concentrations of rat ADM or hαCGRP (1 pM to 1 μM). The effect of ADM (22-52), ADM (26-52) and hαCGRP(8-37), on ADM-mediatedactivation of adenylyl cyclase was also determined.
HEK293 cells transiently transfected with this clone responded to CGRP and ADM […] by stimulating adenylyl cyclase activity (60-80% over basal). This clone has been stably expressed in HEK293 cells using the LipofectAMINE procedure and analyzed for CGRP and ADM-mediated adenylyl cyclase activity. One of the positive clones (BECRLR #8) was fully characterized. […]

[6] = biological target: T1, BECRLR (bovine calcitonin receptor-like receptor); experiment: Adenylyl cyclase activity (activation) in BECRLR-expressing HEK293 cells/membranes; format: biochemical; set-up: adenylyl cyclase activity stimulation over basal: dose or concentration left out as unconfirmed; conditions: for additive effect between CGRP and ADM on adenylyl cyclase: CGRP combined with ADM, BECRLR #8; for adenylyl cyclase activity stimulation over basal: HEK293 cells transiently transfected; for EC50 / activation of adenylyl cyclase activity over basal: stable clone BECRLR #8; for activation of adenylyl cyclase activity over basal: concentration-dependent
Description: A bovine endothelial cell cDNA library was constructed using the k-Zap cDNA synthesis kit (Stratagene, La Jolla, Calif.) following the standard protocol. The human CGRP receptor c-DNA-coding sequence was used as a probe for the isolation of CRLR clones from an endothelial cell library. The probe was radiolabled with [α^32 P] ATP by the random priming method and used to screen approximately 1×10^6 plaque-forming units of the endothelial CRLR cDNA library. Nylon filters (Hybond ) containing plaque lifts were hybridized at 42° in 5× SSC (SSC is 150 mM NaCl and 15 mM sodium citrate), 5× Denhardt's solution, 0.1% SDS and 20% formamide followed by autography. Hybridizing clones (8) were plaque purified, and the pBluescript-containing insert was rescued from the purified×phage by in vivo excision using the Exassist/Solar system (Stratagene) and was sequenced in both strands by the dideoxynucleotide chain termination reaction. Two oligonucleotide primers were designed to amplify the open reading frame of the novel bovine CRLR cDNA. PCR amplification was carried out. A recombinant of the novel bovine CRLR was produced by transfection in HEK-293 cells. Transfection was achieved by LipofectAMINE procedure (Life Technologies, Gaithersburg, Md.). Stable cell lines expressing this receptor were selected with G418 and screened for CGRP and ADM-dependent activation of adenylyl cyclase.
as §1, §4
(§5) HEK293 cells transiently transfected with this clone responded to CGRP and ADM […] by stimulating adenylyl cyclase activity (60-80% over basal). This clone has been stably expressed in HEK293 cells using the LipofectAMINE procedure and analyzed for CGRP and ADM-mediated adenylyl cyclase activity. One of the positive clones (BECRLR #8) was fully characterized. […] To investigate further the functional results described in this study, a binding study using [^125 I]rADM and [^125 I]CGRP was performed to identify the presence of binding sites for both peptides in BE-CRLR (#8) cell membranes. [^125 I] CGRP binding was very little and the affinity or number of binding sites was difficult to determine. […] The specificity of [^125 I] rADM binding to BE-CRLR membranes was investigated by analyzing the displacement of this radioligand binding by ADM and related peptides. Human and rat ADM displaced [^125 I] rADM binding with high affinity (IC50 values 2-4 nM).

[7] = test system: CRLR coexpressed with RAMP 1; conditions: CRLR with RAMP 1; cited from earlier work
[8] = infusion into humans and a variety of other species; cited from earlier work
[9] = test system: insulin's effects on glucose metabolism; conditions: cited from earlier work
[10] = biological target: T1, BECRLR (bovine calcitonin receptor-like receptor); experiment: Saturation / specific radioligand binding to BECRLR-293 membranes
Protocol: as §1
as §3, with “filters. In competition binding studies, the membranes were incubated with increasing concentrations of r ADM or CGRP (1 pM-1 uM) and 150 pM of [^125 I] r ADM for 30 min. at 25° C.” for “filters.”
as §5, with “Human and rat ADM displaced [^125 I] rADM binding with high affinity (IC50 values 2-4 nM).” left out

rat tissues = conditions: [125I] rat ADM; cited from earlier work
[11] = injected intravenously into rats; cited from earlier work
[12] = test system: vascular SMC, and bovine EC; conditions: cited from earlier work
[13] = test system: CRLR co-expressed with RAMP2; conditions: cited from earlier work
NO-cGMP system = conditions: kidney, vascular EC, rabbit ventricular myocytes; cited from earlier work
[14] = test system: rat vascular SMC and cardiomyocytes; conditions: cited from earlier work
[15] = test system: insulin secretion and blood glucose metabolism; conditions: cited from earlier work

Molecule: COc1cc(CNC(=O)CCCC/C=C/C(C)C)ccc1O [capsaicin]
- insulin-stimulated glycogen synthesis [1]: inhibits insulin-stimulated glycogen synthesis

Molecule: COc1ccc(Cl)cc1C(=O)NCCc1ccc(S(=O)(=O)NC(=O)NC2CCCCC2)cc1 [glibenclamide]
- inhibition of CGRP actions [2]: CGRP actions are inhibited by glibenclamide

Molecule: C=C(C)[C@]12C[C@@H](C)[C@@]34O[C@](Cc5ccccc5)(O[C@@H]1[C@@H]3C=C(COC(=O)Cc1ccc(O)c(OC)c1)C[C@]1(O)C(=O)C(C)=C[C@@H]41)O2 [resiniferatoxin]
- insulin-stimulated glycogen synthesis [1]: inhibits insulin-stimulated glycogen synthesis

Molecule: ADM(22-52): ADM receptor antagonist, fragment 22-52 of adrenomedullin
- IC50 [3]: 110 nM
- displacement potency relative to ADM (fold less potent than ADM) ([4]; [125I] rADM displacement): approximately 15 fold

Molecule: ADM(26-52): ADM receptor antagonist, fragment 26-52 of adrenomedullin (LAHQIYQFTDKDKDNVAPRSKISPQGY; ends and bridges not checked; UniProt P35318 120-146, looked up, fragment)
- IC50 [3]: > 10000 nM

Molecule: Calcitonin gene-related peptide [CGRP]
- activation of adenylyl cyclase in vector transfected membranes [5]: did not respond
- displacement of [125I] rADM binding, potency in words ([4]; [125I] rADM displacement): less potent
- additive effect between CGRP and ADM on adenylyl cyclase [6]: no additive effect
- adenylyl cyclase activity stimulation over basal [6]: 60-80 % over basal
- EC50 [6]: 2.8 nM
- activation of adenylyl cyclase activity over basal [6]: ~ 300 % over basal
- response of expressed receptor [7]: responds to CGRP
- vasodilation, blood flow, blood pressure, heart rate [8]: vasodilation, increased regional blood flow, hypotension and tachycardia
- glucose infusion rate needed to maintain plasma euglycemia ([9]; glucose clamp in rats, constant insulin infusion rate): rapid and sustained reduction in the glucose infusion rate
- insulin inhibition of hepatic glucose production ([9]; rat, in vivo): effective in blocking insulin inhibition of hepatic glucose production

Molecule: Human adrenomedullin [Human ADM]
- IC50 [4]: 2 to 4 nM

Molecule: [^125 I]rADM: radioiodinated rat adrenomedullin, radioligand (YRQSMNQGSRSTGCRFGTCTMQKLAHQIYQFTDKDKDGMAPRNKISPQGY; ends and bridges not checked; also: radioiodinated (125I), position not given here; UniProt P43145 94-143, looked up)
- Kd ([10]; Scatchard transformation, single class of high affinity binding site, read-out: dissociation constant (Kd)): 0.25 nM
- specific binding as percent of total binding ([10]; [125I]rADM, BE-CRLR (#8) cell membranes): 80-90 % of the total binding
- density of ADM binding sites among rat tissues (rat tissues): lung had the highest density of ADM binding sites

Molecule: adrenomedullin (YRQSMNQGSRSTGCRFGTCTMQKLAHQIYQFTDKDKDGMAPRNKISPQGY; ends and bridges not checked; cysteine pairing not given here; UniProt P43145 94-143, looked up) [ADM, vasodilating peptide]
- hypotension [11]: strong, long-lasting hypotension
- activation of adenylyl cyclase in vector transfected membranes [5]: did not respond
- intracellular Ca++ ([12]; through the activation of phospholipase C): induces a rise in intracellular Ca^++
- accumulation of intracellular cAMP ([12]; vascular SMC, and bovine EC): stimulates the accumulation of intracellular cAMP
- affinity of BECRLR, overall conclusion ([10]; based on radioligand binding and functional assays): higher affinity to ADM
- additive effect between CGRP and ADM on adenylyl cyclase [6]: no additive effect
- adenylyl cyclase activity stimulation over basal [6]: 60-80 % over basal
- EC50 [6]: 4.3 nM
- activation of adenylyl cyclase activity over basal [6]: ~ 300 % over basal
- response of expressed receptor [13]: responds to ADM
- NO-cGMP system (NO-cGMP system): activated the NO-cGMP system
- c-fos gene expression and AP-I DNA binding activity [14]: induces rapid and transient c-fos gene expression and AP-I DNA binding activity
- insulin secretion and blood glucose metabolism [15]: down-regulate insulin secretion and blood glucose metabolism

Molecule: rat ADM: rat adrenomedullin (YRQSMNQGSRSTGCRFGTCTMQKLAHQIYQFTDKDKDGMAPRNKISPQGY; ends and bridges not checked; cysteine pairing not given here; UniProt P43145 94-143, looked up)
- IC50 [4]: 2 to 4 nM

From patent US6074845A (priority 1999, dated 2000)
